Measured values published in patent US20250026741A1, “INHIBITORS OF THE ONCOGENIC SHP2 PHOSPHATASE AND USES THEREOF” (Sanford Burnham Prebys Medical Discovery Institute, priority 2021, published 2025).

Legend:
[1] = system: MLL-AF10 leukemia cells expressing E76K mutant SHP2; assay: Cell viability assay, MLL-AF10 cells expressing E76K mutant SHP2; type: cell-based, mouse; conditions: Mus musculus
Experimental: (§1) Cell viability assays of SHP099, #01, and #02 against mouse MLL-AF10 leukemia cells were conducted. Two MLL-AF10 cell lines were employed, one expressing wild-type SHP2, and the other expressing E76K mutant SHP2.

SHP2cat [2] = target: T1, SHP2cat (Homo sapiens (Human), UniProt Q06124); assay: OMFP fluorescence intensity inhibition assay, SHP2cat; type: biochemical; conditions: OMFP at Km (50 μM); read-out: IC50 against SHP2cat with OMFP
Source text: We confirmed specific and dose-dependent binding of inhibitors to SHP2 by protein thermal shift, which monitors the thermal stability of a target protein in vitro. […] In addition, we confirmed the inhibitory activity of several furanylbenzamide inhibitors, including the top two compounds #02 and #01, in SHP2cat inhibition assays using the alternative substrate 3-O-methylfluorescein phosphate (OMFP), which features a peak fluorescence emission that is red-shifted by […] compared to DiFMUP. The Km value of OMFP for SHP2cat was determined to be 50 μM. An OMFP fluorescence intensity-based assay was used to perform inhibitor dose-response experiments and determine IC50 values.
SHP2 inhibitors were tested at room temperature (RT) in a 384-well plate format standard phosphatase fluorescence intensity assay using DiFMUP (Invitrogen/Thermo Fisher Scientific, Carlsbad, CA) as a substrate and a total reaction volume of 25 μL. […] Fluorescence intensity was measured in kinetic mode (every minute for 7 or 10 min) using a Tecan Spark® Multimode Microplate Reader (Tecan, Groedig, Austria) with an excitation wavelength of 360 nm and an emission wavelength of 460 nm. The initial rates were determined from the linear progression curves of the PTP reaction. […] Initial rates were determined and IC50 vales calculated as described above.

SHP2cat [3] = target: T1, SHP2cat; assay: Jump dilution inhibition assay; type: biochemical; conditions: 10× preincubation 10 min, 10× jump-dilution
Experimental: Finally, we performed a jump-dilution experiment to test for irreversible inhibition of SHP2. #01 was preincubated for 10 min with SHP2cat at 10× inhibitor and protein concentrations, compared to a regular dose-response experiment, followed by a 10×jump-dilution, incubation for an additional 10 min, and addition of the DiFMUP substrate.
#01 was tested for reversibility of inhibition in a jump-dilution experiment using SHP2cat. A regular dose-response experiment (no jump-dilution) was performed in parallel. Working solutions of #01 in DMSO included 10, 3, 1, 0.3, 0.1, 0.03, 0.01, 0 mM for the jump-dilution experiment, and 1, 0.3, 0.1, 0.03, 0.01, 0.003, 0.001, 0 mM for the regular dose-response experiment. […] The enzyme reaction was started by the addition of 5 μL of DiFMUP working solution (100 μM in 50 mM Bis-Tris pH 6.0, 50 mMNaCl, 0.5 mM EDTA, and 0.01% Tween® 20), and fluorescence intensity was measured in kinetic mode (every minute for 10 min) using a Tecan Spark® Multimode Microplate Reader as described above. […] The initial rates were determined from the linear progression curves of the SHP2cat reaction. […] IC50 values were calculated from the corrected initial rates by nonlinear regression using the program GraphPad Prism (GraphPad Software, Inc., San Diego, CA) version 9.

[4] = system: MLL-AF10 leukemia cells expressing wild-type SHP2; assay: Cell viability assay, MLL-AF10 cells expressing wild-type SHP2; type: cell-based, mouse; conditions: Mus musculus
Experimental: as §1

SHP2cat [5] = target: T1, SHP2cat; assay: Mass spectrometry test for inhibitor:protein adducts; conditions: SHP2cat 5 μM, inhibitor 100 μM, 1, 5, 20, 60 min, trypsin proteolysis, MS
Experimental: Additionally, we used mass spectrometry to test whether inhibitor: protein adducts are formed. Specifically, we incubated SHP2cat (5 μM) with #02 (100 μM) in assay buffer for various times (1, 5, 20, and 60 min) before trypsin proteolysis and subsequent mass spectrometry analysis.

T1 sequence (Q06124 248-527): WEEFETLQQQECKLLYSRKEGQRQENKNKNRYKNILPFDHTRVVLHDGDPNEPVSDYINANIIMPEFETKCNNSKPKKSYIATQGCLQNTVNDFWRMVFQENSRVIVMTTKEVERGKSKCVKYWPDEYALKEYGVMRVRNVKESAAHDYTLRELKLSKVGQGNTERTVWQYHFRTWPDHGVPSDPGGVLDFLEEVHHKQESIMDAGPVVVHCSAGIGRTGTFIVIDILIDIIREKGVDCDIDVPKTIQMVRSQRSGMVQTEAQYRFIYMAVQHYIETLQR

IC50 [1] [nM]	IC50 (SHP2cat [2]) [nM]	reversibility: jump-dilution vs regular dose-response IC50 curves (SHP2cat [3])	IC50 [4] [nM]	Compound	inhibitor:protein adduct formation (SHP2cat [5])
2000	1200	IC50 curves were practically identical	916	Nc1ccc(NC(=O)c2cc(-c3ccc(/C=C4\Sc5ccccc5C4=O)o3)ccc2O)cc1 [#01, (Z)—N-(4-Aminophenyl)-2-hydroxy-5-(5-((3-oxobenzo[b]thiophen-2(3H)-ylidene)methyl)furan-2-yl)benzamide]	–
3000	440	–	2000	O=C(Nc1ccccc1)c1cc(-c2ccc(/C=C3\Sc4ccccc4C3=O)o2)ccc1O [#02, (Z)-2-hydroxy-5-(5-((3-oxobenzo[b]thiophen-2(3H)-ylidene)methyl)furan-2-yl)-N-phenylbenzamide]	no adduct formation with the inhibitor was found
